The values that follow come from patent US20130123201A1, “MODULATION OF CYTOKINE-INDUCED CHRONIC INFLAMMATORY RESPONSES” (UNIVERSITY OF MANITOBA, priority 2010, published 2013).

No end group written: not given here.

Type in all cases: cell-based
Data set [1] relates to human monocytic THP-1 cells. Kind of data set: Cellular cytotoxicity by LDH release.
Experimental: Human monocytic THP-1 (ATCC® TIB-202; ATCC is a registered trademark of the American Type Culture Collection, Manassas, Va., USA) cells were cultured in RPMI-1640 media containing 2 mM L-glutamine and 1 mM sodium pyruvate (referred to as complete RPMI media from here on), supplemented with 10% (v/v) FBS, and maintained in a humidified incubator at 37° C. and 5% CO2. […] Cellular cytotoxicity was evaluated after 24 hr stimulation with the various stimulants used in this study by monitoring the release of lactate dehydrogenase (LDH) employing a colorimetric detection kit (Roche Diagnostics, Laval, QC, Canada) Human monocytic THP-1 (ATCC® TIB-202) cells and Jurkat T-cell line (ATCC® TIB-152) were cultured in RPMI-1640 media containing 2 mM L-glutamine and 1 mM sodium pyruvate, supplemented with 10% (v/v) FBS, and maintained in a humidified incubator at 37° C. and 5% CO2. […] Cellular cytotoxicity was evaluated after AHA labeling and upon stimulation with the various cytokines for all the cell types used in this study by monitoring the release of lactate dehydrogenase (LDH) employing a colorimetric detection kit (Roche Diagnostics, Laval, QC, Canada).
Data set [2] deals with human T-cell Jurkat cell line. In words: Cellular cytotoxicity by LDH release. The note with it: human T-cell Jurkat cells. As for the experimental part: (§1) Where indicated the THP-1 cells were differentiated to plastic-adherent macrophage-like cells by treatment with phorbol 12-myristate 13-acetate (PMA; Sigma-Aldrich Canada, Oakville ON) as taught by Mookherjee et al. (2006). A rabbit synoviocyte cell line HIG-82 (ATCC® CRL-1832) was cultured in Ham's F-12 growth medium containing glutamine supplemented with sodium pyruvate (referred to as complete F-12 media henceforth), containing 10% (v/v) FBS in a humidified incubator at 37° C. and 5% CO2. Confluent HIG-82 cells were trypsinized with 1:3 dilution of 0.5% trypsin-EDTA in Hanks' balanced salt solution. Cellular cytotoxicity was evaluated after AHA labeling and upon stimulation with the various cytokines for all the cell types used in this study by monitoring the release of lactate dehydrogenase (LDH) employing a colorimetric detection kit (Roche Diagnostics, Laval, QC, Canada). Recombinant human cytokines TNF-α and IL-1β were obtained from eBioscience, Inc (San Diego, Calif., USA).
A general note: LDH leaks from cells whose membrane has failed.

Data set [3] relates to rabbit synovial fibroblast HIG-82 cell line. Kind of data set: Cellular cytotoxicity by LDH release. The note with it: HIG-82 synovial fibroblast cell line, within 4 hr. The protocol: as §1
Data set [4] concerns human PBMC. In words: ELISA of IL-32-induced TNF-α and IL-1β production in PBMC (ex-vivo). As to conditions: for Effect on IL-32-induced TNF-α production: p<0.05; for Effect on IL-32 induced pro-inflammatory protein production (FIG. 21 legend): peripheral blood mononuclear cells. An excerpt: In order to confirm these activities in a physiologically relevant system, we evaluated the impact of the peptide in an ex-vivo assay using human PBMC, because cells recruited from the circulation are a major component of inflammatory infiltrates. Venous blood was collected from healthy volunteers with informed consent in accordance to a protocol approved by the Institutional Review Board at the University of Manitoba. PBMC was isolated from blood following the teaching of Mookherjee et al. (2009, Systems biology evaluation of immune responses induced by human host defence peptide LL-37 in mononuclear cells. Mol. Biosyst. 5:483-496). PBMC were stimulated with chronic inflammatory cytokine IL-32 (20 ng/ml) in the presence and absence of 5 μM of peptides, LL-37 and its derivatives (Table 7) for 24 hr. The tissue culture supernatants were monitored for the production of pro-inflammatory cytokines TNF-α and IL-1β by ELISA. […] Results shown are an average of four independent biological experiments performed with cells isolated from blood of four different donors ±standard error.

The subject of data set [5] is Human macrophage-like THP-1 cells. In words: ELISA of cytokine/chemokine production in THP-1 tissue culture supernatants. As to conditions: macrophage-like THP-1 cells, IL-32 20 ng/mL, 24 hr. The protocol:
ELISA immunoassay: Tissue culture supernatants were centrifuged at 1500× g for 5-7 min to obtain cell-free samples and the aliquots were stored at −20° C. until further use. Production of chemokine Gro-α was monitored in the tissue culture supernatants by ELISA employing human Gro-α DuoSet (R&D Systems Inc.) as per the manufacturer's instructions. Production of cytokine TNF-α was monitored in the tissue culture supernatants using specific antibody pairs from eBioscience, Inc., and production of IL-8 was monitored using specific antibody pairs from R&D Systems, Inc., as per the manufacturer's instructions. The concentration of the cytokines or chemokines in the tissue culture supernatants was evaluated by establishing a standard curve with serial dilutions of the recombinant human cytokines or chemokines as required.
ELISA immunoassay: Tissue culture supernatants were centrifuged at 1500× g for 5-7 min to obtain cell-free samples and the aliquots were stored at −20° C. until further use. Production of chemokine Gro-α was monitored in the tissue culture supernatants by ELISA employing human Gro-α DuoSet (R&D Systems Inc.) per the manufacturer's instructions. Production of cytokine TNF-α was monitored in the tissue culture supernatants using specific antibody pairs from eBioscience, Inc., and production of IL-8 was monitored using specific antibody pairs from R&D Systems, Inc., per the manufacturers' instructions. The concentrations of the cytokines or chemokines in the tissue culture supernatants were evaluated by establishing a standard curve with serial dilutions of the recombinant human cytokines or chemokines as required.
Impact of cationic peptide LL-37 and its synthetic derivatives on IL-32-induced protein production: Human macrophage-like THP-1 cells were stimulated with IL-32 (20 ng/mL) in the presence and absence of cationic peptide LL-37, tissues culture supernatants were monitored for the production of pro-inflammatory cytokines TNF-α and IL-1β, and chemokines after 24 hr of stimulation. […] As LL-37 suppressed IL-32-mediated pro-inflammatory responses, we also evaluated the impact of LL-37 derived synthetic peptides. […] No studies to data have explored the impact of these peptides in the context of chronic inflammation. […] This provides the data that supports further investigation of these peptide candidates as potential therapeutics for diseases characterized by chronic inflammation.
(ELISA stands for enzyme-linked immunosorbent assay.)

Data set [6] relates to AHA-labeled human monocytic THP-1 cells. Kind of data set: ELISA of IL-8 production by AHA-labeled THP-1 cells. As to conditions: 10 ng/ml, 4 hr. The protocol:
AHA labeling, biotin tagging of nascent proteins, and affinity purification: Cells were washed with warm D-PBS, and cultured in methionine-free, serum-free RPMI media at 37° C. 5% CO2 for 60 min. […] TC supernatants were monitored for the production of IL-8 by ELISA. Metabolic labeling of the cells with AHA reagent in the presence of the cytokine stimulants would result in induced nascent proteins with azide-bearing functional group, thus making them distinct from pool of pre-existing cellular proteins. Also these functional groups were further used to tag the nascent proteins with a biotin-alkyne reagent as follows. The cells were washed with D-PBS, followed by preparing cell lysates in lysis buffer containing 50 mM Tris-HCl, 1% SDS, 250 U/ml of benzonase nuclease and protease and phosphatase inhibitor cocktails (Sigma-Aldrich Canada Inc.). Total protein was estimated in the cell lysates using micro BCA analysis. Equivalent amount of total protein from each sample was acetone precipitated and then treated with Click-iT® Biotin-alkyne reagent (Invitrogen Canada Inc.) per the manufacturer's instructions. […]

In data set [7] the test system is Human THP-1 monocytic cells. In words: qRT-PCR kinetics of cytokine-induced gene expression of identified candidates. An excerpt: Quantitative real-time PCR (qRT-PCR): RNA was isolated using the Qiagen RNeasy® kit as per the manufacturer's instructions (Rneasy is a registered trademark of Qiagen GmbH, Hilden, Fed. Rep. Germany). Gene expression was subsequently analyzed by qRT-PCR using SuperScript® III Platinum Two-Step qRT-PCR Kit with SYBR Green (SuperScript is a registered trademark of Invitrogen Corp., Carlsbad, Calif., USA), according to the manufacturer's instructions, in the ABI PRISM® 7300 sequence detection system (BI PRISM is a registered trademark of Applera Corp., Foster City, Calif., USA). Fold changes were calculated by the comparative Ct method as taught by Pfaffl (2001) after normalization with 18sRNA.

Data set [8] deals with human monocytic THP-1 cells. In words: AHA labeling, affinity purification and iTRAQ quantitative proteomics of nascent proteins. The note with it: AHA-labeled THP-1 cells, cytokine 10 ng/ml, 4 hr, vs un-stimulated cells. The protocol:
AHA labeling, biotin tagging of nascent proteins, and affinity purification: Cells were washed with warm D-PBS, and cultured in methionine-free, serum-free RPMI media at 37° C. 5% CO2 for 60 min. […] TC supernatants were monitored for the production of IL-8 by ELISA. Metabolic labeling of the cells with AHA reagent in the presence of the cytokine stimulants would result in induced nascent proteins with azide-bearing functional group, thus making them distinct from pool of pre-existing cellular proteins. Also these functional groups were further used to tag the nascent proteins with a biotin-alkyne reagent as follows. The cells were washed with D-PBS, followed by preparing cell lysates in lysis buffer containing 50 mM Tris-HCl, 1% SDS, 250 U/ml of benzonase nuclease and protease and phosphatase inhibitor cocktails (Sigma-Aldrich Canada Inc.). Total protein was estimated in the cell lysates using micro BCA analysis. Equivalent amount of total protein from each sample was acetone precipitated and then treated with Click-iT® Biotin-alkyne reagent (Invitrogen Canada Inc.) per the manufacturer's instructions. The biotin-alkyne reagent thus covalently coupled to the reactive azide group of the AHA-modified proteins was used to subsequently enrich the nascent proteins by affinity purification using Ultralink® Immobilized NeutrAvidin® resin (Ultralink and NeutrAvidin are registered trademarks of Pierce Biotechnology Inc, Rockford, Ill., USA), and the bound proteins were eluted using 6 M guanidinium hydrochloride.
Quantitative proteomics employing isobaric tag for relative and absolute quantitation (iTRAQ): Amine-modifying iTRAQ™ reagents multiplex kit (Applied Biosystems, Foster City, Calif., USA) was employed for relative quantitation of purified nascent proteins. Affinity purified eluates were acetone precipitated at −20° C. overnight. Proteins were dissolved in 20 μl of iTRAQ dissolution buffer (Applied Biosystems) and further processed as per the manufacturer's instructions. Briefly, proteins were reduced and the cysteines blocked using the reagents in kit, followed by digestion of the protein samples with provided trypsin solution overnight at 37° C. […] The contents from each of the iTRAQ reagent-labeled sample was combined together and processed for nanoflow liquid chromatography coupled to tandem mass spectrometry (LC-MS/MS).
The AHA-containing nascent proteins enriched by affinity purification were quantitated using isobaric iTRAQ quantitative proteomics reagents. This was done to identify and estimative the relative abundance of nascent proteins enriched in the cytokine-treated samples compared to un-stimulated cells. […] Samples from four independent experiments were individually examined by LC-MS/MS. Peptides identified with 95% confidence were selected for further analysis. The mass spectrometry data was analyzed using Global Proteome Machine (GPM-http://www.thegpm.org/).

The mark [9] stands for this setting: human PBMC, IL-32 20 ng/ml, 5 μM peptide, 24 hr.

With `[N-]=[N+]=NCC[C@H](N)C(=O)O` [AHA, L-azidohomoalanine], the “Cytotoxicity of AHA labeling (LDH release)” value in data set [1] (human monocytic THP-1 cells) is reported as “not cytotoxic”; in data set [2] it was “not cytotoxic”; in data set [3], “cytotoxic”.
In the case of “IG-19: LL-37-derived synthetic peptide, SEQ ID NO: 23, IGKEFKRIVQRIKDFLRNL-NH2”, in data set [4] (setting [9]), the “Effect on IL-32-induced IL-1β production” value is on record as “neutralized” and the “Effect on IL-32-induced TNF-α production” value is given as “neutralized”. Besides, the “Effect on IL-32 induced pro-inflammatory protein production (FIG. 21 legend)” value (“Effect … (FIG. 21 legend)” for short) in data set [4] is on record as “suppression”. In addition, in data set [5], the “Effect on IL-32-induced IL-1β production” value is on record as “significantly suppressed”; the “Effect on IL-32-induced TNF-α production” value is reported as “significantly suppressed”; the “Effect on IL-32-induced chemokine production (IL-8, GROα)” value was “did not completely neutralize”.
Take “IG-25: LL-37-derived synthetic peptide, SEQ ID NO: 22, IGKEFKRIVQRIKDFLRNLVPRTES-NH2”: in data set [4] (setting [9]), the “Suppression of IL-32-induced TNF-α production” value is > 90% and the “Effect on IL-32-induced TNF-α production” value is given as “neutralized”. Further, the “Effect … (FIG. 21 legend)” value in data set [4] is given as “suppression”. In addition, in data set [5], the “Effect on IL-32-induced IL-1β production” value was “significantly suppressed”; the “Effect on IL-32-induced TNF-α production” value is “significantly suppressed”; the “Effect on IL-32-induced chemokine production (IL-8, GROα)” value is recorded as “did not completely neutralize”.
Consider “IL-1β: Recombinant human cytokine IL-1β from eBioscience, used as stimulant”, for which the “Cytotoxicity of cytokine treatment (LDH release)” value in data set [1] (AHA-labeled THP-1 cells, cytokine 10 ng/ml, 4 hr, data not shown) is listed as “not cytotoxic”. In addition, the “IL-8 production upon IL-1β stimulation compared to cells stimulated with TNF-α” value in data set [6] is on record as “more than 2 fold”. Further, the “Production of IL-8” value in data set [6] (p<0.001) is “significant”. The “Up-regulation of gene expression of PYGL” value in data set [7] came out at 1.5 fold. The “Up-regulation of gene expression of RAB14 and Eifa3” value in data set [7] (p≦0.01) is ≥ 1.5 fold. Also, in data set [8], the “Fold Change of nascent protein AIFM1” value amounted to 1.2 fold, the “Fold Change of nascent protein ALDOA” value is reported as 1.5 fold, the “Fold Change of nascent protein CALR” value was determined as 1.0 fold and the “Fold Change of nascent protein CAP1” value is 1.9 fold. In data set [8], the “Fold Change of nascent protein CTPS” value amounted to 1.5 fold, the “Fold Change of nascent protein DDX17” value was 2.2 fold, the “Fold Change of nascent protein EIFA3” value is listed as 1.2 fold and the “Fold Change of nascent protein HMGN1” value was 1.5 fold. Also, in data set [8], the “Fold Change of nascent protein HSPA4” value worked out at 1.1 fold, the “Fold Change of nascent protein LCP1” value came out at 1.5 fold, the “Fold Change of nascent protein PRTN3” value turned out to be 0.8 fold and the “Fold Change of nascent protein PSME2” value is 2.3 fold. In addition, in data set [8], the “Fold Change of nascent protein PYGL” value turned out to be 1.7 fold, the “Fold Change of nascent protein RAB14” value came to 1.2 fold, the “Fold Change of nascent protein SEC22B” value was determined as 1.6 fold and the “Fold Change of nascent protein VDAC3” value came to 1.1 fold.
Consider “RK-25: LL-37-derived synthetic peptide, SEQ ID NO: 24, RKSKEKIGKEFKRIVQRIKDFLRNL-NH2”, for which the “Effect … (FIG. 21 legend)” value in data set [4] is reported as “suppression”.
